Laboratory results as given in PubChem BioAssay (NCI).
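How tested: cells in 96-well plates exposed to compound for 48 hours at five concentrations. At the GI50, growth is halved. TGI is the concentration that stops growth completely.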 Where a SMILES comes first, the peptide text is derived from it. The star is where a group is joined. Cbz = O=C(OCc1ccccc1)*; CH2Cl = ClC*

System: EKVX NSCLC
Assay: DTP human tumour cell line panel, 48 h

Compound | GI50 | TGI
COc1cc(Cn2c(-c3ccccc3)c(Cl)c3c2-c2oncc2CC3)cc(OC)c1 | 4.97 µM | > 100 µM
COc1ccc(-c2nn(-c3ccc(NC(=O)c4ccc(Cl)c(Cl)c4)cc3)cc2-c2ccncc2)cc1Cl | 3.25 µM | > 50 µM
O=C(CC1(O)C(=O)N(Cc2ccccc2)c2ccc(F)cc21)c1ccc(C(=O)NCC2CCC3(CC2)OOC2(CCCCC2)OO3)cc1 (stereo not given) | 0.412 µM | 1.25 µM
COc1cc2c3c(n(C)c(=O)c2cc1OC)-c1cc2c(cc1/C3=C\CN)OCO2 | 11.6 µM | > 100 µM
CN(C)C(n1cc2c(c1)-c1ccc(Cl)cc1C(c1ccccc1F)=NC2)n1cc2c(c1)-c1ccc(Cl)cc1C(c1ccccc1F)=NC2 | – | > 100 µM
COc1ccc(/C=C2/N=C(c3ccccc3)N(c3c(C)n(C)n(-c4ccccc4)c3=O)C2=O)cc1OC | > 100 µM | > 100 µM
C[C@@H]1CC[C@@H]2[C@@H]1[C@H](OC(=O)/C=C/c1ccccc1)[C@]1(C3CCCCC3)C[C@@H](OC(=O)CO)[C@@]2(C)O1 | 3.47 µM | 15.6 µM
CCn1c2ccccc2c2cc(NC(=O)Nc3ccc([N+](=O)[O-])cc3C)ccc21 | 5.35 µM | > 100 µM
COc1cccc2c1C(=O)c1c(O)c3c(c(O)c1C2=O)C[C@](O)(C(=O)CO)C[C@H]3O[C@@H]1C[C@@H](NC(=O)CCCCCN(C)C2(c3ccc(F)cc3)CC3CCC2C3)[C@H](O)[C@@H](C)O1 (stereo not given in full) | 7.85 µM | 17.7 µM
CCSc1ncnc2c1ncn2C1OC(CO)C(O)C1O (stereo not given) | 0.419 µM | > 100 µM
O=C(CSc1nc2ccccc2nc1-c1ccccc1)Nc1ccc(F)cc1 | 75 µM | > 100 µM
CC[C@H]1[C@@H]2C=C[C@@H]3[C@H]4C/C=C\C(=O)NCCC[C@@H]5NC(=O)/C(=C(O)/C=C/[C@@H]4C[C@@H]3[C@H]2C[C@H]1C)C5=O | 1.45 µM | 3.31 µM

System: SF-539 CNS
Assay: DTP human tumour cell line panel, 48 h

Compound | GI50 | TGI
O=C(N[C@@H](c1ccc(Cl)c(Cl)c1)C1CNC1)c1ccc2cnccc2c1 | 40.8 nM | 0.798 µM
O=C1OCC2=C1C(c1cccc(Br)c1)c1cc3c(cc1N2CCO)CCC3 (stereo not given) | 80.1 nM | 5.46 µM
Nc1nc(/C=C\c2ccc([N+](=O)[O-])s2)nc(N2CCCC2)n1 | 8240 nM | 30.4 µM
CC(=O)OC12C=CC(=O)N1c1ccccc1C(=O)O2 (stereo not given) | – | > 100 µM
Oc1cccnc1[Se] | – | > 100 µM
CC(C)Oc1ccc2cc(-c3nn(CC4CCNCC4)c4ncnc(N)c34)ccc2c1 | 12300 nM | 24.7 µM
COc1cc(F)ccc1-c1ncnc(Nc2cccc(CS(C)(=N)=O)c2)n1 (stereo not given) | 385 nM | 2.94 µM
CS(=O)(=O)CCNCc1nc(-c2ccc3ncnc(Nc4ccc(OCc5cccc(C(F)(F)F)c5)cc4)c3c2)cs1 | > 25000 nM | > 25 µM
CC(C)CC(NC(=O)OCc1ccccc1)C(=O)NC(Cc1ccccc1)C(=O)CCl (stereo not drawn) (Cbz-Leu-Phe-CH2Cl; configuration not given here) | – | 10.2 µM
[Cl][Hg][c]1cc[c]([Hg][Cl])o1 | 3080 nM | 13.8 µM
CCOC(=O)C(Cc1ccc(CCCC(=O)NCCC(=O)Nc2ccc3nc(C)sc3c2)cc1)C(=O)OCC | 42500 nM | > 82.6 µM
NCCNc1c2c(c(NCCN)c3[nH]ccc13)C(=O)c1ccccc1C2=O | 44.4 nM | 0.885 µM
Cc1c2c(C#N)nccc2c(C)c2c1c1ccccc1n2Cc1ccccc1 | – | > 100 µM
COc1cc(Cn2c(-c3ccccc3)c(Cl)c3c2-c2oncc2CC3)cc(OC)c1 | 8190 nM | 70.9 µM
COc1ccc(-c2nn(-c3ccc(NC(=O)c4ccc(Cl)c(Cl)c4)cc3)cc2-c2ccncc2)cc1Cl | 1550 nM | > 19 µM
O=C(CC1(O)C(=O)N(Cc2ccccc2)c2ccc(F)cc21)c1ccc(C(=O)NCC2CCC3(CC2)OOC2(CCCCC2)OO3)cc1 (stereo not given) | 210 nM | 0.541 µM
COc1cc2c3c(n(C)c(=O)c2cc1OC)-c1cc2c(cc1/C3=C\CN)OCO2 | 227 nM | –
CN(C)C(n1cc2c(c1)-c1ccc(Cl)cc1C(c1ccccc1F)=NC2)n1cc2c(c1)-c1ccc(Cl)cc1C(c1ccccc1F)=NC2 | – | > 100 µM
COc1ccc(/C=C2/N=C(c3ccccc3)N(c3c(C)n(C)n(-c4ccccc4)c3=O)C2=O)cc1OC | > 100000 nM | > 100 µM
